Data on 23 molecules can be found in patent US20260070911A1, “INHIBITORS OF TAM RECEPTORS” (National Health Research Institutes, priority 2022, published 2026).

What all share (assay type): biochemical
The target in assay [1] is T1, AXL (Homo sapiens, UniProt P30530).
T1 sequence (P30530 26-894): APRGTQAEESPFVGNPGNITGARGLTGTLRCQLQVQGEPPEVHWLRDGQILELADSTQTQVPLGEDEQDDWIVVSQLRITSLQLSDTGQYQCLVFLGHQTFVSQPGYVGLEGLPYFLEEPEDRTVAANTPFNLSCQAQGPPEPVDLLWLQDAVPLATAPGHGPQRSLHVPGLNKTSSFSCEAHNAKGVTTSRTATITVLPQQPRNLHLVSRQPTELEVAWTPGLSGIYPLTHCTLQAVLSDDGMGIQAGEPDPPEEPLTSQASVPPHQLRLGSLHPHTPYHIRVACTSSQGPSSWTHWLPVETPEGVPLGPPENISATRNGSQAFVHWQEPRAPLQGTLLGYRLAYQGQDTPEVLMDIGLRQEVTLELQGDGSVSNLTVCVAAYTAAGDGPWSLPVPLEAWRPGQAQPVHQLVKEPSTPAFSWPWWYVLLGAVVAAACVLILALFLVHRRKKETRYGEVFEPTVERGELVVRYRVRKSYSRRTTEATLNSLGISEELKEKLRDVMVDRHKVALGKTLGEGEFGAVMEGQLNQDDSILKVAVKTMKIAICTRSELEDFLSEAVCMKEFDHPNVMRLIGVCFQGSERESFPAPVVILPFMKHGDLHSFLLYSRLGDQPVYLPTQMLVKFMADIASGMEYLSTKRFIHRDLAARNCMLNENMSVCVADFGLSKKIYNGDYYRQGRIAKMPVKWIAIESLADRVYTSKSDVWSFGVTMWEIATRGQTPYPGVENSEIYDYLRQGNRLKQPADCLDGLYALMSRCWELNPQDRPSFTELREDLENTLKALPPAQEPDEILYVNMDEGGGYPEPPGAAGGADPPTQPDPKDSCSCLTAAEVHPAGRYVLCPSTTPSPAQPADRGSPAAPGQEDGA
The assay can be described thus: AXL enzymatic assay (ADP-Glo). The conditions noted are these: purified kinase, ATP 50 μM, read-out: AXL Enzymatic Inhibition (%). The method, then:
(§1) A purified kinase (AXL or MERTK) was incubated with a compound or DMSO (control) for 15 minutes in an assay buffer (25 mM Tri s pH 7.4, 10 mM MgCl2, 4 mM MnCl2, 2 mM DTT, 0.0100 BSA, 0.02% TritonX-100, 0.0100 Brij35 and 0.5 mM Na3VO4 for MERTK; and 40 mM Tri s pH 7.4, 20 mM MgCl2, 2 mM DTT, 0.01% BSA and 0.5 mM Na3VO4 for AXL). […] The mixture was incubated for 3 hours at 30° C. The luminescence was calculated to determine the kinase activity using a Kinase Glo assay kit for MERTK and an ADP-Glo Kinase Assay kit for AXL following the manufacture's instructions (Promega Corp., Madison, Wisconsin).
(§2) A study was conducted to compare exemplary compounds of formula (I) in inhibiting TAM activities, including MERTK, AXL, and TYRO3. An enzymatic assay was used in the study. A purified Kinase (i.e., MERTK, AXL, or TYRO3) was incubated with a compound or DMSO (control) for around 15 minutes in an assay buffer (25 mM Tris pH 7.4, 10 mM MgCl2, 4 mM MnCl2, 2 mM DTT, 0.01% BSA, 0.02% TritonX-100, 0.01% Brij35 and 0.5 mM Na3VO4 for MERTK; 40 mM Tris pH 7.4, 20 mM MgCl2, 2 mM DTT, 0.01% BSA and 0.5 mM Na3VO4 for AXL; and 25 mM Tris pH 7.4, 10 mM MgCl2, 4 mM MnCl2, 2 mM DTT, 0.01% BSA and 0.5 mM Na3VO4 for TYRO3). […] The mixture was incubated for 3 hours at 30° C. The luminescence was calculated to determine the kinase activity using a Kinase Glo assay kit for MERTK and an ADP-Glo Kinase assay kit for AXL and TYRO3 following the manufacture's instructions (Promega). Inhibition rates and half maximal inhibitory concentration (IC50) values were calculated. High percentage inhibition rates and low IC50 values are indicatives of high potency of the test compound.

In assay [2] the target is T2, MERTK (Homo sapiens, UniProt Q12866).
T2 sequence (Q12866 21-999): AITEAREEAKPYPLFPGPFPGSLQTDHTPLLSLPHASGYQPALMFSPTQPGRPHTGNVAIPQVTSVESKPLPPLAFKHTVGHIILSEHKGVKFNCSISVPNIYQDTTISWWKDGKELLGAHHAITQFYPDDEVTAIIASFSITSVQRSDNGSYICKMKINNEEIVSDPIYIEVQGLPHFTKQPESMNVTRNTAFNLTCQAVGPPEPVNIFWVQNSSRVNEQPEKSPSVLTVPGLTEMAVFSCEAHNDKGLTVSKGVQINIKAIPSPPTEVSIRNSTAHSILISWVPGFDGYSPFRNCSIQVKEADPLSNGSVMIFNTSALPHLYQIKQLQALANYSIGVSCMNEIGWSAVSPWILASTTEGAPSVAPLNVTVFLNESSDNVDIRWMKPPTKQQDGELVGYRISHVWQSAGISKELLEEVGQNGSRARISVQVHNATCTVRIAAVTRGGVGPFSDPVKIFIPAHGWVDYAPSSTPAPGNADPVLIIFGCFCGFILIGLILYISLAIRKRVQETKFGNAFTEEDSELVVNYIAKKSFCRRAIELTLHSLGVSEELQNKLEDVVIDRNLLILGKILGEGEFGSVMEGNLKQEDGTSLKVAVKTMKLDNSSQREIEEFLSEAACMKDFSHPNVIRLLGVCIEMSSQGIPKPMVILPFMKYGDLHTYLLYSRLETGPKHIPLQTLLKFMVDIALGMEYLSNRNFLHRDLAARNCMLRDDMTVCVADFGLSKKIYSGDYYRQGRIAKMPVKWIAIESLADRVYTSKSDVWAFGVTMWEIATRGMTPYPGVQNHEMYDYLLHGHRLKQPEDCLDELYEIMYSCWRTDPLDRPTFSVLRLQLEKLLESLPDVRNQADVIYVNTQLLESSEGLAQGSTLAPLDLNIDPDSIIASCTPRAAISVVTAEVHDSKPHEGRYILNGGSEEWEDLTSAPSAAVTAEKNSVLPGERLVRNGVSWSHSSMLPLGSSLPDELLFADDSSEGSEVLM
The assay can be described thus: MERTK enzymatic assay (Kinase Glo). The note with it: purified kinase, ATP 12 μM, read-out: MER Enzymatic Inhibition (%). The method, then: as §1, §2

Assay [3] relates to MER/AXL. As to the kind of experiment: Dual MER/AXL inhibition (enzymatic). The note with it: class for both MER and AXL. The method, then:
as §1

As to `CCOc1ccn(-c2ccc(F)cc2)c(=O)c1C(=O)Nc1ccc(Oc2ncnc3[nH]cc(-c4cccc(N)c4)c23)cc1` [Compound 1], the figures for the IC50 in assay [1], in assay [2] and in assay [3] were less than 20 nM, 20 to 100 nM and 20 to 100 nM, respectively.
As to `CCOc1ccn(-c2ccc(F)cc2)c(=O)c1C(=O)Nc1ccc(Oc2ncnc3[nH]cc(-c4cccc(NC(C)=O)c4)c23)cc1` [Compound 2], the IC50 was less than 20 nM in assay [1], 20 to 100 nM in assay [2] and 20 to 100 nM in assay [3].
For `O=C(Nc1ccc(Oc2nc(Cl)nc3[nH]ccc23)cc1)c1cccn(-c2ccc(F)cc2)c1=O` [Compound 5], the IC50 in assay [1], in assay [2] and in assay [3] was 100 to 50000 nM in each case.
`CCOc1ccn(-c2ccc(F)cc2)c(=O)c1C(=O)Nc1ccc(Oc2ncnc3[nH]ccc23)cc1` [Compound 6]: the IC50 in assay [1], in assay [2] and in assay [3] was 100 to 50000 nM in each case.
Turning to `O=C(Nc1ccc(Oc2ncnc3[nH]cc(-c4ccccc4)c23)cc1)c1cccn(-c2ccc(F)cc2)c1=O` [Compound 8], the IC50 in assay [1] lay within 100 to 50000 nM; in assay [2], 20 to 100 nM; in assay [3], 100 to 50000 nM.
For `Nc1cccc(-c2c(-c3ccccc3)oc3ncnc(Oc4ccc(NC(=O)c5cccn(-c6ccc(F)cc6)c5=O)cc4)c23)c1` [Compound 9], the IC50 in assay [1], in assay [2] and in assay [3] was 100 to 50000 nM each time.
With `C=CC(=O)Nc1cccc(-c2c(-c3cnn(C)c3)oc3ncnc(Oc4ccc(NC(=O)c5cccn(-c6ccc(F)cc6)c5=O)cc4)c23)c1` [Compound 12], the IC50 in assay [1], in assay [2] and in assay [3] was 100 to 50000 nM in each case.
For the molecule `O=C(Nc1ccc(Nc2ncnc3[nH]cc(C#Cc4ccccc4)c23)cc1)c1cccn(-c2ccc(F)cc2)c1=O` [Compound 13], the IC50 in assay [1], in assay [2] and in assay [3] was 100 to 50000 nM throughout.
On to `Nc1cccc(-c2c[nH]c3ncnc(Nc4ccc(NC(=O)c5cccn(-c6ccc(F)cc6)c5=O)cc4)c23)c1` [Compound 14], for which the IC50 in assay [1] was less than 20 nM; in assay [2] it was 100 to 50000 nM; in assay [3], 100 to 50000 nM.
As to `O=C(Nc1ccc(Oc2ncnc3[nH]cc(-c4cccnc4)c23)cc1)c1cccn(-c2ccc(F)cc2)c1=O` [Compound 16], the IC50 in assay [1] was less than 20 nM; in assay [2], 100 to 50000 nM; in assay [3] it was 100 to 50000 nM.
On to `O=C(Nc1ccc(Oc2ncnc3[nH]cc(-c4ccccn4)c23)cc1)c1cccn(-c2ccc(F)cc2)c1=O` [Compound 17], for which the results for the IC50 in assay [1], in assay [2] and in assay [3] were less than 20 nM, 100 to 50000 nM and 100 to 50000 nM, respectively.
For the molecule `O=C(Nc1ccc(Oc2ncnc3[nH]cc(C#Cc4ccccc4)c23)cc1)c1cccn(-c2ccc(F)cc2)c1=O` [Compound 18], the IC50 is less than 20 nM in assay [1], 100 to 50000 nM in assay [2] and 100 to 50000 nM in assay [3].
Consider `CCOc1ccn(-c2ccc(F)cc2)c(=O)c1C(=O)Nc1ccc(Oc2ncnc3oc(-c4cnn(C)c4)c(-c4cccc(N)c4)c23)cc1` [Compound 19], for which the IC50 was less than 20 nM in assay [1], 20 to 100 nM in assay [2] and 20 to 100 nM in assay [3].
With `CN(C)c1cccc(-c2c[nH]c3ncnc(Oc4ccc(NC(=O)c5cccn(-c6ccc(F)cc6)c5=O)cc4)c23)c1` [Compound 21], the IC50 in assay [1], in assay [2] and in assay [3] was 100 to 50000 nM in each case.
On to `CNc1cccc(-c2c[nH]c3ncnc(Oc4ccc(NC(=O)c5cccn(-c6ccc(F)cc6)c5=O)cc4)c23)c1` [Compound 22], for which the IC50 in assay [1] was 20 to 100 nM; in assay [2], 100 to 50000 nM; in assay [3], 100 to 50000 nM.
As to `CC(=O)Nc1cccc(-c2c(-c3c(C)noc3C)oc3ncnc(Oc4ccc(NC(=O)c5cccn(-c6ccc(F)cc6)c5=O)cc4)c23)c1` [Compound 26], the IC50 in assay [1], in assay [2] and in assay [3] was 100 to 50000 nM each time.
In the case of `CC(=O)Nc1cccc(-c2c(-c3cn(C)nc3C)oc3ncnc(Oc4ccc(NC(=O)c5cccn(-c6ccc(F)cc6)c5=O)cc4)c23)c1` [Compound 27], the IC50 in assay [1] was less than 20 nM; in assay [2], 100 to 50000 nM; in assay [3], 100 to 50000 nM.
With `Cn1cc(-c2oc3ncnc(Oc4ccc(NC(=O)c5cccn(-c6ccc(F)cc6)c5=O)cc4)c3c2-c2cccnc2)cn1` [Compound 31], the IC50 in assay [1] was less than 20 nM; in assay [2], 100 to 50000 nM; in assay [3] it was 100 to 50000 nM.
On to `Cn1cc(-c2oc3ncnc(Oc4ccc(NC(=O)c5cccn(-c6ccc(F)cc6)c5=O)cc4)c3c2-c2ccc(N3CCNCC3)cc2)cn1` [Compound 32], for which the IC50 in assay [1], in assay [2] and in assay [3] was less than 20 nM throughout.
Turning to `Cn1cc(-c2oc3ncnc(Oc4ccc(NC(=O)c5cccn(-c6ccc(F)cc6)c5=O)cc4)c3c2-c2cccc(N3CCNCC3)c2)cn1` [Compound 33], the IC50 in assay [1], in assay [2] and in assay [3] was less than 20 nM each time.
`CC(=O)Nc1cccc(-c2c(Br)oc3ncnc(Oc4ccc(NC(=O)c5cccn(-c6ccc(F)cc6)c5=O)cc4)c23)c1` [Compound 49]: the IC50 is 20 to 100 nM in assay [1] and 100 to 50000 nM in assay [2].
`Cn1cc(-c2oc3ncnc(Oc4ccc(NC(=O)c5cccn(-c6ccc(F)c(Cl)c6)c5=O)cc4)c3c2-c2cccc(N)c2)cn1` [Compound 96]: the IC50 is less than 20 nM in assay [1] and 20 to 100 nM in assay [2].
Consider `CN(C)Cc1cccc(-c2c(-c3cnn(C)c3)oc3ncnc(Oc4ccc(NC(=O)c5cccn(-c6ccc(F)c(Cl)c6)c5=O)cc4)c23)c1` [Compound 97], for which the figures for the IC50 in assay [1] and in assay [2] were less than 20 nM and 20 to 100 nM, respectively.
